The source of these data is patent publication US20070156042A1, “Medical device system and method for tracking and visualizing a medical device system under MR guidance” (priority 2005, published 2007).

This series is described as follows: Diffusion of a fluorescent probe in swollen gelatin gel by FRAP. The format is physicochemical. The conditions noted are these: coating thickness 60 μm, diffusion coefficient 9×10−12 m2s−1. The source says:
To assess the stability of DTPA[Gd(III)] in the gelatin coating, the diffusion of a fluorescence probe in gelatin was studied by the technique of fluorescence recovery after photobleaching (FRAP). The instrument and data analysis scheme are described in Kim, S. H. and Yu, H., J. Phys. Chem. 1992, 96, 4034, which is hereby fully incorporated by reference. Fluorescein was used as the fluorescence probe due, in part, to its molecular size being roughly the same as that of DTPA[Gd(III)]. The focus of the study was to examine the possible retardation effects of gelatin concentration and cross-link density on the diffusion, which was determined at room temperature, i.e., below the gel point of gelatin. The diffusion of fluorescein probe slows down with the increase of gelatin concentration. The diffusion coefficient decreases from 1.5×10−10 to 9×10−12 m2s−1 when the concentration of gelatin increases from 9% to 40%. […] Accordingly, the probe diffusion is more likely controlled by the concentration of gelatin rather than the cross-link density. On the other hand, the cross-link density may determine the swelling ratio of gelatin, i.e., the concentration of gelatin in aqueous solution. […]

Consider `O=C(O)CN(CCN(CC(=O)O)CC(=O)O)CCN(CC(=O)O)CC(=O)O` [DTPA, diethylenetriaminepentaacetic acid], for which the “time to diffuse out of the gelatin coating” value is “about 67 seconds”.
